Measurements: paper PMC9646673, “A Novel, Orally Bioavailable, Small-Molecule Inhibitor of PCSK9 With Significant Cholesterol-Lowering Properties In Vivo” (Journal of Lipid Research, 2022)
Several values for one entry are separate records, joined by “and”; a condition that tells them apart may be missing. Equal values may be shown once.

Assays:
[1] = system: APOE∗3-Leiden.CETP mice; assay: Second efficacy study (35 days, with atorvastatin): plasma lipids; assay type: in vivo, mouse
Source text: (§1) Animal experiments were approved by the governmental central committee on animal experiments (AVD5010020172064) and TNO’s animal welfare body (TNO-471 and TNO-482). Female APOE∗3-Leiden.CETP transgenic mice (11–16 weeks of age) were bred at the animal facility of TNO-InnoSer (Leiden, The Netherlands). Female animals were used in this study as they are more responsive to dietary cholesterol and fat than males and therefore typically develop atherosclerosis more rapidly than male APOE∗3-Leiden and APOE∗3-Leiden.CETP mice on cholesterol-containing diets ([33], [34]). Although measurements of atherosclerosis were not included as part of the present study, females were used with the prospect in mind that atherosclerosis studies will follow. The mice were housed under standard conditions that included 12 h light-dark cycles and access to a WTD and sterilized tap water ad libitum. Body weight, food intake, and clinical signs of behavior were monitored throughout the studies. […] Time t = 0 (weeks) was designated as the time at which mice were matched into groups after the 3-week run-in period in each efficacy study.
(§2) In both studies, blood samples were collected at weekly intervals via tail vein sampling after fasting the mice for 4 h. Blood samples were centrifugated (4500 g at 4°C), and the plasma was collected for the following analyses. Total plasma cholesterol levels were determined using a Cholesterol CHOD-PAP kit according to the manufacturer’s instructions. Plasma HDL-C levels were determined by first precipitating apoB-containing lipids using PEG 6000/glycine and then utilizing the Cholesterol CHOD-PAP kit ([35]). Non-HDL-C levels were determined by subtracting HDL-C levels from total cholesterol levels ([32]). Group-pooled lipoprotein profiles were determined by FPLC analysis using an AKTApurifier 10 FPLC system (GE Healthcare, Chicago, IL). Plasma PCSK9 levels were determined using a Mouse PCSK9 Quantikine ELISA kit as per the manufacturer’s protocol. ALT and AST levels of group-pooled samples were measured using the Roche Reflotron Plus System (Mannheim, Germany).

[2] = system: plasma PCSK9 protein levels; assay: First efficacy study: plasma total PCSK9 (ELISA); assay type: in vivo, mouse; settings: 50 mg/kg BID PO, day 28
Source text: Animal experiments were approved by the governmental central committee on animal experiments (AVD5010020172064) and TNO’s animal welfare body (TNO-471 and TNO-482). Female APOE∗3-Leiden.CETP transgenic mice (11–16 weeks of age) were bred at the animal facility of TNO-InnoSer (Leiden, The Netherlands). Female animals were used in this study as they are more responsive to dietary cholesterol and fat than males and therefore typically develop atherosclerosis more rapidly than male APOE∗3-Leiden and APOE∗3-Leiden.CETP mice on cholesterol-containing diets ([33], [34]). […] Body weight, food intake, and clinical signs of behavior were monitored throughout the studies. […]
Treatment times were around 8:00 am and 4:00 pm each day. Throughout the in-life phase of the study, body weight and food intake (per cage) were measured at regular predetermined intervals while blood samples were collected every 7 days. […] Throughout the study, plasma cholesterol, triglycerides, HDL-C, lipoprotein profiles, PCSK9 expression levels, aspartate transaminase levels (AST), and alanine transaminase levels (ALT) were measured as described below.
In both studies, blood samples were collected at weekly intervals via tail vein sampling after fasting the mice for 4 h. […] Total plasma cholesterol levels were determined using a Cholesterol CHOD-PAP kit according to the manufacturer’s instructions. […]

[3] = molecular target: T1, PCSK9-LDLR interaction (Homo sapiens, UniProt Q8NBP7); assay: CircuLex PCSK9-LDLR in vitro binding assay; settings: in vitro biochemical binding assay; read-out: IC50 against the PCSK9-LDLR interaction
T1 construct: purchased CycLex (Nagano, Japan) CY8150
Source text: Ethics was granted by the Comité de Protection des Personnes Sud Méditerranée (ID: 2020-A00196-33). Studies using human samples abided by the Declaration of Helsinki principles.

[4] = system: APOE∗3-Leiden.CETP mice; assay: First efficacy study (28 days): plasma lipids; assay type: in vivo, mouse
Source text: as §1
Treatment times were around 8:00 am and 4:00 pm each day. Throughout the in-life phase of the study, body weight and food intake (per cage) were measured at regular predetermined intervals while blood samples were collected every 7 days. The last gavage was administered on day 27. On day 28, the mice were sacrificed by CO2 asphyxiation, EDTA-plasma was obtained via heart puncture, and the liver was weighed and collected. Throughout the study, plasma cholesterol, triglycerides, HDL-C, lipoprotein profiles, PCSK9 expression levels, aspartate transaminase levels (AST), and alanine transaminase levels (ALT) were measured as described below.
as §2

[5] = day 0 (baseline), NYX-PCSK9i 50 mg/kg BID PO
[6] = day 14, NYX-PCSK9i 50 mg/kg BID PO
[7] = day 28, NYX-PCSK9i 50 mg/kg BID PO
[8] = day 35, NYX-PCSK9i 50 mg/kg BID PO
[9] = 30 mg/kg BID PO, day 0 (baseline)
[10] = 50 mg/kg BID PO, day 0 (baseline)

T1 sequence (Q8NBP7 153-692): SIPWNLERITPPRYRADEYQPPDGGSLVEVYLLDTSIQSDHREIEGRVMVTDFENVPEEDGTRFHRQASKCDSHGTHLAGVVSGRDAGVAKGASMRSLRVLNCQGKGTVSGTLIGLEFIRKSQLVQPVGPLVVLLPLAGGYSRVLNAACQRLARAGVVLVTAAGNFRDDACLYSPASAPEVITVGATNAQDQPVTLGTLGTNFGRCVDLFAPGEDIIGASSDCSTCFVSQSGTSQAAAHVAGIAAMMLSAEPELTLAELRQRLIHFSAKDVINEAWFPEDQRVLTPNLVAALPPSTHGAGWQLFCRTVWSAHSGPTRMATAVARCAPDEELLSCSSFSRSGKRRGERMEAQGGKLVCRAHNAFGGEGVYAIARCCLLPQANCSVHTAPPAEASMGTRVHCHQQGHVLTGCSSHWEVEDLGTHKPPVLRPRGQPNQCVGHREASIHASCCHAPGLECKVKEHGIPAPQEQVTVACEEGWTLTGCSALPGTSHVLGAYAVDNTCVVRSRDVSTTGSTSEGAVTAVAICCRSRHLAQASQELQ
T1 sequence (Q8NBP7 31-152 partner limits assumed): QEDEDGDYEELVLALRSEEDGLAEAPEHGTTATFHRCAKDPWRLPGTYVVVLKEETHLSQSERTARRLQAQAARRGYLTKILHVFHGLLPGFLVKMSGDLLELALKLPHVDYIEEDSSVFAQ

Cc1cn(-c2cc(CN3CCC[C@H](N)C3)cc(NC(=O)c3cc(-c4ccccc4)ccn3)c2)cn1 [NYX-PCSK9i]
Plasma HDL-cholesterol [1, 5]: 0.9 ± 0.1 mmol/L
Plasma non- HDL-cholesterol [1, 5]: 14.6 ± 2.5 mmol/L
Plasma triglycerides (mean ± SD) [1, 5]: 5.3 ± 1.4 mmol/L
Plasma triglycerides (mean ± SD) ([1]; day 7, NYX-PCSK9i 50 mg/kg BID PO): 8.9 ± 3.3 mmol/L
Plasma HDL-cholesterol [1, 6]: 0.7 ± 0.4 mmol/L
Plasma non- HDL-cholesterol [1, 6]: 12.7 ± 0.6 mmol/L
Plasma triglycerides (mean ± SD) [1, 6]: 8.6 ± 2.7 mmol/L
Plasma triglycerides (mean ± SD) ([1]; day 21, NYX-PCSK9i 50 mg/kg BID PO): 7.1 ± 1.6 mmol/L
Plasma HDL-cholesterol [1, 7]: 0.8 ± 0.2 mmol/L
Plasma non- HDL-cholesterol [1, 7]: 11.8 ± 2.8 mmol/L
Plasma triglycerides (mean ± SD) [1, 7]: 6.0 ± 1.7 mmol/L
Plasma HDL-cholesterol [1, 8]: 0.7 ± 0.4 mmol/L
Plasma non- HDL-cholesterol [1, 8]: 12.8 ± 2.8 mmol/L
Plasma triglycerides (mean ± SD) [1, 8]: 5.8 ± 1.7 mmol/L
maximal increase in plasma PCSK9 protein levels [2]: 2 fold
IC50 [3]: 323 nM
Plasma HDL- cholesterol (mean ± SEM) [4, 9]: 0.9 ± 0.2 mmol/L
Plasma non-HDL- cholesterol (mean ± SEM) [4, 9]: 14.7 ± 1.6 mmol/L
Plasma triglycerides (mean ± SD) [4, 9]: 5.7 ± 2.2 mmol/L
Plasma triglycerides (mean ± SD) ([4]; 30 mg/kg BID PO, day 7): 7.0 ± 2.0 mmol/L
Plasma HDL- cholesterol (mean ± SEM) ([4]; 30 mg/kg BID PO, day 14): 0.4 ± 0.1 mmol/L
Plasma non-HDL- cholesterol (mean ± SEM) ([4]; 30 mg/kg BID PO, day 14): 13.1 ± 2.2 mmol/L
Plasma triglycerides (mean ± SD) ([4]; 30 mg/kg BID PO, day 14): 8.9 ± 1.8 mmol/L
Plasma triglycerides (mean ± SD) ([4]; 30 mg/kg BID PO, day 21): 6.1 ± 1.5 mmol/L
Plasma HDL- cholesterol (mean ± SEM) ([4]; 30 mg/kg BID PO, day 28): 0.8 ± 0.2 mmol/L
Plasma non-HDL- cholesterol (mean ± SEM) ([4]; 30 mg/kg BID PO, day 28): 10.5 ± 1.4 mmol/L
Plasma triglycerides (mean ± SD) ([4]; 30 mg/kg BID PO, day 28): 5.7 ± 1.9 mmol/L
Plasma HDL- cholesterol (mean ± SEM) [4, 10]: 0.8 ± 0.1 mmol/L
Plasma non-HDL- cholesterol (mean ± SEM) [4, 10]: 14.6 ± 2.5 mmol/L
Plasma triglycerides (mean ± SD) [4, 10]: 6.1 ± 1.9 mmol/L
Plasma triglycerides (mean ± SD) ([4]; 50 mg/kg BID PO, day 7): 5.9 ± 2.0 mmol/L
Plasma HDL- cholesterol (mean ± SEM) ([4]; 50 mg/kg BID PO, day 14): 0.6 ± 0.2 mmol/L
Plasma non-HDL- cholesterol (mean ± SEM) ([4]; 50 mg/kg BID PO, day 14): 9.8 ± 2.4 mmol/L
Plasma triglycerides (mean ± SD) ([4]; 50 mg/kg BID PO, day 14): 5.2 ± 1.7 mmol/L
Plasma triglycerides (mean ± SD) ([4]; 50 mg/kg BID PO, day 21): 4.2 ± 1.3 mmol/L
Plasma HDL- cholesterol (mean ± SEM) ([4]; 50 mg/kg BID PO, day 28): 0.9 ± 0.2 mmol/L
Plasma non-HDL- cholesterol (mean ± SEM) ([4]; 50 mg/kg BID PO, day 28): 6.8 ± 1.5 mmol/L
Plasma triglycerides (mean ± SD) ([4]; 50 mg/kg BID PO, day 28): 4.1 ± 1.2 mmol/L
reduction of total cholesterol in absolute terms ([4]; 50 mg/kg BID PO, day 28): 10.1 mM and 390 mg/dl
